The source of these data is article doi:10.1101/2025.07.01.658226v1 (biorxiv, 2025).

The target of this assay is T1, SyHR (Synechocystis sp. PCC 7509, UniProt A0A9X9ZA75).
T1 sequence (A0A9X9ZA75 1-234): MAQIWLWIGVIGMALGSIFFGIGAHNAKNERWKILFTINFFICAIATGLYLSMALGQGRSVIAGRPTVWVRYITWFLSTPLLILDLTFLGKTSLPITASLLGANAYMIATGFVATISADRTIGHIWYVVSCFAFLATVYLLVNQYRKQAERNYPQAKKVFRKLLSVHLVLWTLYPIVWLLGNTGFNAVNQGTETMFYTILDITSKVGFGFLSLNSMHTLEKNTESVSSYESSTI
The experiment in a line: absorption spectral shift titration, Hill fit. It is filed as binding.
For `Cl` [a, Cl^−], the Kd worked out at 280 ± 50 µM.

With `Br` [b, Br^−], the Kd was 110 ± 20 µM.

With `O=[N+]([O-])O` [c, NO3^−], the Kd came out at 6150 ± 750 µM.

`I` [d, I^−]: the Kd worked out at 210 ± 30 µM.
